Measured values published in patent US4221907A, “Substituted O-α-D and O-β-D-multi-galactopyranosyl and glucopyranosyl 1→4 and 1→6 galactopyranosyl 1→6 α-D-glucopyranoses” (American Cyanamid Company, priority 1979, dated 1980).
Counter-ions that a name gives are not always drawn.

What was measured:
complement system = settings: reported, British Journal of Experimental Pathology, 33, 327-339 (1952); cited from earlier work
human C1 = human C1 (Homo sapiens, UniProt P09871); test: Test Code 026 (C1 inhibitor): activated human C1 destroys fluid phase human C2 in presence of C4; type: biochemical; settings: activity in wells, twofold serial dilution; higher well number indicates higher activity
Excerpt: (§1) An active inhibitor protects C2 from C1 and C4; (ii) Test Code 035 (C3-C9 inhibitor)--This test determines the ability of the late components of human complement (C3-C9) to lyse EAC 142 in the presence of appropriate dilutions of the test compound. An active inhibitor protects EAC 142 from lysis by human C3-C9; (iii) Test Code 036 (C-Shunt inhibitor)--In this test human erythrocytes rendered fragile are lysed in autologous serum via the shunt pathway activated by cobra venom factor in the presence of appropriate dilutions of the test compound. Inhibition of the shunt pathway results in failure of lysis; (iv) Forssman Vasculitis Test--Here, the well known complement dependent lesion, Forssman vasculitis, is produced in guinea pigs by intradermal injection of rabbit anti-Forssman antiserum. The lesion is measured in terms of diameter, edema and hemorrhage and the extent to which a combined index of these is inhibited by prior intraperitoneal injection of the test compound at 200 mg/kg is then reported, unless otherwise stated; (v) Forssman Shock Test--Lethal shock is produced in guinea pigs by an i.v. injection of anti-Forssman antiserum and the harmonic mean death time of treated guinea pigs is compared with that of the simultaneous controls; (vi) Complement Level Reduction Test--In this test, the above dosed guinea pigs, or others are bled for serum and the complmenet level is determined in undiluted serum by the capillary tube method of U.S. Pat. No. 3,876,376 and compared to undosed control guinea pigs; (vii) Cap 50 Test--Here, appropriate amounts of the test compound are added to a pool of guinea pig serum in vitro, after which the undiluted serum capillary tube assay referred to above is run. The concentration of compound inhibiting 50% is reported.
(§2) **Activity in wells, a serial dilution assay; higher well number indicate
(§3) higher activity. The serial dilutions are twofold-

whole complement = test: In vivo activity (Guinea Pig): serum whole complement by capillary tube assay after dosing; settings: Intraperitoneal, 200 mg/kg
shunt pathway = test: Test Code 036 (C-Shunt inhibitor): lysis of human erythrocytes in autologous serum via shunt pathway activated by cobra venom factor; type: biochemical; settings: activity in wells, twofold serial dilution; higher well number indicates higher activity
Excerpt: as §1, §2, §3

human complement (C3-C9) = test: Test Code 035 (C3-C9 inhibitor): lysis of EAC 142 by late components of human complement; type: biochemical; settings: activity in wells, twofold serial dilution; higher well number indicates higher activity
Excerpt: as §1, §2, §3

[1] = tested on: hereditary angio-neurotic edema; settings: reported in the literature; cited from earlier work
[2] = tested on: total hemolytic complement activity; settings: in vitro and in vivo, as judged by reduction in total hemolytic complement activity; cited from earlier work

Chain of human C1 (P09871 16-688): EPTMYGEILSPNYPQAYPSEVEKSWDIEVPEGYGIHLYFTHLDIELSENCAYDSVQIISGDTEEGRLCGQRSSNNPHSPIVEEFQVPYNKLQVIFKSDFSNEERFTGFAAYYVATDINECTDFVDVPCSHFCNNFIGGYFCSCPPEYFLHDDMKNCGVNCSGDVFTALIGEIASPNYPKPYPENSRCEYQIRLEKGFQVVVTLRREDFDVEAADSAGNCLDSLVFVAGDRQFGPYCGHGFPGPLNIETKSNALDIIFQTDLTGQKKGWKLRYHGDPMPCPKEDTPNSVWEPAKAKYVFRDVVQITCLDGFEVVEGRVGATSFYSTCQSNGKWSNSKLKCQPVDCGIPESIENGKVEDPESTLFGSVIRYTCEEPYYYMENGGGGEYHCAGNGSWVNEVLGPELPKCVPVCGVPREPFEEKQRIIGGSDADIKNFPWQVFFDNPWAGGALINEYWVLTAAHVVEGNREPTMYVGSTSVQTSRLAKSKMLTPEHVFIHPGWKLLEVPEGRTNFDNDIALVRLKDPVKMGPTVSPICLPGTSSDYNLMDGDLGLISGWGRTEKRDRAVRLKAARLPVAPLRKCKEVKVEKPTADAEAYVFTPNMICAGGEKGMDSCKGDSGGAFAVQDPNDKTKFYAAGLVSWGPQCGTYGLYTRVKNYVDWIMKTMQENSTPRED
Chain of human C1 (P00736 18-705 partner): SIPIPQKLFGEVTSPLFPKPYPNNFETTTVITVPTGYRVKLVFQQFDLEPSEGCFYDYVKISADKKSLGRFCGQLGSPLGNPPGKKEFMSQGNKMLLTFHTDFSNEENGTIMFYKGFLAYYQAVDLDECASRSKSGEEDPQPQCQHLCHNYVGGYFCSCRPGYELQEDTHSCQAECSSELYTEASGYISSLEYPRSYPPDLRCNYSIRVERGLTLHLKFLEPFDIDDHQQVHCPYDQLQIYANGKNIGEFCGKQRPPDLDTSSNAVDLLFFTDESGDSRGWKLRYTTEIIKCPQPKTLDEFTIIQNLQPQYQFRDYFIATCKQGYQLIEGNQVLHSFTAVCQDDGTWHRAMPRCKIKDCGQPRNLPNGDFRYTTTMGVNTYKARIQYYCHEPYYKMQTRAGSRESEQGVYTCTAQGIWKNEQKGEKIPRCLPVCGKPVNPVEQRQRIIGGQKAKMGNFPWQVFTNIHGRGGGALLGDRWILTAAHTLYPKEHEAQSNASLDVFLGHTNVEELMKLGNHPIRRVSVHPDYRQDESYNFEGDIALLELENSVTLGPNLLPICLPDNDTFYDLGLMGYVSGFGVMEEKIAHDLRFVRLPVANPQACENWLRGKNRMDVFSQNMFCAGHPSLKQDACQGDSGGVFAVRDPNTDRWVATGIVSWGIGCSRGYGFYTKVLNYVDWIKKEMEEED
Chain of human C1 (P02745 23-245 partner): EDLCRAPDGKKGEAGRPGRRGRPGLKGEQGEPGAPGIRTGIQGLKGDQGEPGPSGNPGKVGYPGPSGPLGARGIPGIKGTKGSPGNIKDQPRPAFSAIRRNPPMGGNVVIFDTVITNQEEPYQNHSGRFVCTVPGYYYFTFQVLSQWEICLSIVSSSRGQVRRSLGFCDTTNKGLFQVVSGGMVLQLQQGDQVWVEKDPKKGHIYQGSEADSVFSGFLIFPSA
Chain of human C1 (P02746 28-253 partner): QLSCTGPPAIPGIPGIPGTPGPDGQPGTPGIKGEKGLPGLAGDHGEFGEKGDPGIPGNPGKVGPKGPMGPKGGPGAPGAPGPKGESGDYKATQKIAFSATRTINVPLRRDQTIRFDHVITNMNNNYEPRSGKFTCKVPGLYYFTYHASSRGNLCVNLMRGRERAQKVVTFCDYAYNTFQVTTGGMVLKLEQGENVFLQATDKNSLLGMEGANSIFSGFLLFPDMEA
Chain of human C1 (P02747 29-245 partner): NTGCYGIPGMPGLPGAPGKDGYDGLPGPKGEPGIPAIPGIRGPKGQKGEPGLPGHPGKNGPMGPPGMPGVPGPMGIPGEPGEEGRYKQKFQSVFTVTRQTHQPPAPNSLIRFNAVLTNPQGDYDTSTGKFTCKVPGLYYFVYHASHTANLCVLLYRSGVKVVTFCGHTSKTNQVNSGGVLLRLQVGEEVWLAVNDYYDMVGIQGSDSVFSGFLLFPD

## Nc1ccc2cc(S(=O)(=O)[O-])cc(O)c2c1N=Nc1ccc(NC(=O)Nc2ccc(N=Nc3c(N)ccc4cc(S(=O)(=O)[O-])cc(O)c34)c(S(=O)(=O)[O-])c2)cc1S(=O)(=O)[O-].[Na+].[Na+].[Na+].[Na+] [chlorazol fast pink, 3,3'-ureylenebis[6-(2-amino-8-hydroxy-6-sulfo-1-naphthylazo)benzenesulfonic acid], tetrasodium salt]
Complement system
  anticomplementary effect: anticomplementary effect

## O=S(=O)(O)OC[C@H]1O[C@H](OC[C@H]2O[C@@H](OC[C@H]3O[C@H](OC[C@H]4O[C@H](OS(=O)(=O)O)[C@H](OS(=O)(=O)O)[C@@H](OS(=O)(=O)O)[C@@H]4OS(=O)(=O)O)[C@H](OS(=O)(=O)O)[C@@H](OS(=O)(=O)O)[C@H]3OS(=O)(=O)O)[C@H](OS(=O)(=O)O)[C@@H](OS(=O)(=O)O)[C@@H]2OS(=O)(=O)O)[C@H](OS(=O)(=O)O)[C@@H](OS(=O)(=O)O)[C@H]1OS(=O)(=O)O [drawing 9, O-α-D-galactopyranosyl(1→6)-O-β-D-glucopyranosyl(1→6)-O-α-D-galactopyranosyl(1→6)-α-D-glucopyranose [gal 1α,6 glc 1β,6 gal 1α,6 glc] tetradecakis (H-sulfate), tetradecasodium salt]
Human C1
  C1 026 Wells: +9 Wells
Whole complement; 30 min
  In vivo Activity (Guinea Pig) % Inhibition: -44%
Whole complement; 60 min
  In vivo Activity (Guinea Pig) % Inhibition: -55%
Whole complement; 120 min
  In vivo Activity (Guinea Pig) % Inhibition: -80%
Shunt pathway
  Shunt Inhibition 036 Wells: +6 Wells
Human complement (C3-C9)
  C-Late 035 Wells: +1 Wells

## O=S(=O)(O)OC[C@H]1O[C@@H](OC[C@H]2O[C@H](OC[C@H]3OC(OS(=O)(=O)O)[C@H](OS(=O)(=O)O)[C@@H](OS(=O)(=O)O)[C@@H]3OS(=O)(=O)O)[C@H](OS(=O)(=O)O)[C@@H](OS(=O)(=O)O)[C@H]2OS(=O)(=O)O)[C@H](OS(=O)(=O)O)[C@@H](OS(=O)(=O)O)[C@@H]1O[C@H]1O[C@H](COS(=O)(=O)O)[C@@H](OS(=O)(=O)O)[C@H](OS(=O)(=O)O)[C@H]1OS(=O)(=O)O (stereo partly drawn) [drawing 11, O-α-D-glucopyranosyl(1→4)-O-β-D-glucopyranosyl(1→6)-O-α-D-galactopyranosyl(1→6)-D-glucopyranose [glc 1α,4 glc 1β,6 gal 1α,6 glc] tetradecakis (H-sulfate), tetradecasodium salt]
Human C1
  C1 026 Wells: +10 Wells
Whole complement; 30 min
  In vivo Activity (Guinea Pig) % Inhibition: -54%
Whole complement; 60 min
  In vivo Activity (Guinea Pig) % Inhibition: -45%
Whole complement; 120 min
  In vivo Activity (Guinea Pig) % Inhibition: -39%
Shunt pathway
  Shunt Inhibition 036 Wells: +6 Wells
Human complement (C3-C9)
  C-Late 035 Wells: +1 Wells

## O=S(=O)(O)OC[C@H]1O[C@@H](OC[C@H]2O[C@H](OC[C@H]3OC(OS(=O)(=O)O)[C@H](OS(=O)(=O)O)[C@@H](OS(=O)(=O)O)[C@@H]3OS(=O)(=O)O)[C@H](OS(=O)(=O)O)[C@@H](OS(=O)(=O)O)[C@H]2OS(=O)(=O)O)[C@H](OS(=O)(=O)O)[C@@H](OS(=O)(=O)O)[C@@H]1O[C@H]1O[C@H](COS(=O)(=O)O)[C@@H](O[C@H]2O[C@H](COS(=O)(=O)O)[C@@H](O[C@H]3O[C@H](COS(=O)(=O)O)[C@@H](O[C@H]4O[C@H](COS(=O)(=O)O)[C@@H](O[C@H]5O[C@H](COS(=O)(=O)O)[C@@H](O[C@H]6O[C@H](COS(=O)(=O)O)[C@@H](OS(=O)(=O)O)[C@H](OS(=O)(=O)O)[C@H]6OS(=O)(=O)O)[C@H](OS(=O)(=O)O)[C@H]5OS(=O)(=O)O)[C@H](OS(=O)(=O)O)[C@H]4OS(=O)(=O)O)[C@H](OS(=O)(=O)O)[C@H]3OS(=O)(=O)O)[C@H](OS(=O)(=O)O)[C@H]2OS(=O)(=O)O)[C@H](OS(=O)(=O)O)[C@H]1OS(=O)(=O)O (stereo partly drawn) [drawing 17, O-α-D-glucopyranosyl(1→4)-O-α-D-glucopyranosyl(1→4)-O-α-D-glucopyranosyl(1→4)-O-α-D-glucopyranosyl(1→4)-O-α-D-glucopyranosyl(1→4)-O-α-D-glucopyranosyl(1→4)-O-β-D-glucopyranosyl(1→6)-O-α-D-galactopyranosyl(1→6)-D-glucopyranose [(glc 1α,4)6 glc 1β,6 gal 1α,6 glc] nonacosakis (H-sulfate), non-acosasodium salt]
Human C1
  C1 026 Wells: +9 Wells
Shunt pathway
  Shunt Inhibition 036 Wells: +5 Wells
Human complement (C3-C9)
  C-Late 035 Wells: +3 Wells

## NCCCCCC(=O)O [epsilon-aminocaproic acid]
[1]
  treatment of hereditary angio-neurotic edema: used with success

## NC[C@H]1CC[C@H](C(=O)O)CC1 [tranexamic acid]
[1]
  treatment of hereditary angio-neurotic edema: used with success

## heparin
Complement system
  anticomplementary effect: anticomplementary effect

## pentosan-polysulfoester
[2]
  anticomplementary activity on human serum: anticomplementary activity on human serum, both in vitro and in vivo
